Test results from patent publication US20100003217A1, “Compounds and Pharmaceutical Compositions for the Treatment of Viral Infections” (priority 2008, published 2010).

Columns and labels:
[1] = tested on: HCV genotype 1b replicon (Zluc cells); assay: HCV luciferase replicon assay; format: cell-based, hepatitis C virus; conditions: 3 days
Experimental: The HCV luciferase replicon assay measures the ability of a test compound to inhibit HCV replication in cell culture after 3 days of treatment in a human hepatoma cell line (Huh-7) bearing the HCV genotype 1b replicon and a luciferase-neomycin phosphotransferase fusion gene. The inhibition of HCV replication was measured by quantification of luciferase protein expression. The HCV luciferase replicon was constructed by fusing a luciferase gene to the amino terminus of the neomycin phosphotransferase gene of the ZS11 HCV replicon. The ZS11 HCV replicon (Zhu Q, Guo J-T, and Seeger C, 2003) is derived from the SP1 replicon, but contains three cell culture-adapted mutations: E1202G (NS3), S22041 (NS5A), and D2254E (NS5A). These mutations allow for efficient in vitro replication. The luciferase reporter gene was amplified from the pGL4.13[luc2/SV40] vector (Promega Corp.). The replicon resulting from the luciferase-neomycin fusion (ZS11-luc) was stably-transfected into Huh-7 cells, yielding the Zluc cell line.
(§1) The luciferase replicon assay is summarized as follows: Solid white 96-well tissue culture plates (BD Falcon) were seeded with Zluc cells. Antiviral compound solutions were made up freshly in medium as 2×-concentrated stocks. Eight additional 3-fold drug dilutions were prepared from these stocks in medium for a total of 9 dilutions. At least four hours after Zluc cells were seeded, drug treatment was initiated by adding one volume of each 2×-concentrated drug dilution to one volume of cells/medium in the tissue culture plates. Cells were then incubated for 3 days at 37° C./5% CO2.
The media/compound was then removed from the plates and the ONE-glo Luciferase assay reagent (Promega) was added to each well. The assay plates were shaken for 3 minutes at room temperature and luciferase activity for each well was measured with a 1 sec read time on the Victor^3V multilabel counter using a 700 nm cut-off filter (Perkin Elmer). EC50 values were calculated from dose response curves from the resulting best-fit equations determined by Microsoft Excel and XLfit 4.1 software.

[2] = tested on: HCV genotype 1b replicon (GS4.1 cells); assay: HCV replicon assay (NS4A ELISA); format: cell-based, hepatitis C virus; conditions: 3 days
Experimental: The biological activity of Compound 1, diastereomer 1 and diastereomer 2 was measured by monitoring expression of the NS4A protein by enzyme-linked immunosorbent assay (ELISA) and by luciferase assay as described below:
The HCV replicon assay measures the ability of a test compound to inhibit HCV replication in cell culture after 3 days of treatment in a human hepatoma cell line (Huh-7) bearing the HCV genotype 1b replicon (GS4.1 cells). The inhibition of HCV replication was measured by quantification of viral NS4A protein using an enzyme-linked immunosorbent assay (ELISA). […] Additionally, the replicon contains the neomycin phosphotransferase gene under the control of the HCV promoter (Source: Dr. Christoph Seeger, Fox Chase Cancer Center, Philadelphia, Pa.).
as §1, with “The NS4A ELISA” for “The luciferase replicon”, “as follows. Ninety-six-well” for “as follows: Solid white 96-well”, “plates” for “plates (BD Falcon)”, “with GS4.1” for “with Zluc”, “after GS4.1” for “after Zluc”, “each 2× concentrated” for “each 2×-concentrated”
The media/compound was then removed from the plates and cells were fixed with acetone:methanol, washed three times with a wash solution, and then blocked for 1 hour with 10% fetal bovine serum in a balanced salt solution. Cells were washed three times and incubated with an anti-hepatitis C NS4A monoclonal antibody (Virogen Corp.) for 2 hours at 37° C. […] The reaction was stopped with diluted sulfuric acid (Mallinckrodt Chemicals) and absorbance measured on a Victor^3V 1420 multilabel counter (Perkin Elmer). EC50 values were calculated from dose response curves from the resulting best-fit equations determined by Microsoft Excel and XLfit 4.1 software.

GS4.1 cells = assay: Cytotoxicity assay (MTS), GS4.1 cells; format: cell-based, human; conditions: 3 days (NS4A-ELISA Assay)
Experimental: The cytotoxicity assay measures the viability of cells after treatment with a test compound for 3 days in either GS4.1 cells or Zluc cells. […] The cytotoxicity assay is summarized as follows. Ninety-six-well tissue culture plates were seeded with GS4.1 or Zluc cells. Antiviral compound solutions were made up freshly in medium as 2×-concentrated stocks. Eight additional 3-fold drug dilutions were prepared from these stocks in medium for a total of 9 dilutions. At least four hours after the cells were seeded, drug treatment was initiated by adding one volume of each 2×-concentrated drug dilution to one volume of cells/medium in the tissue culture plates. Cells were then incubated for 3 days at 37° C./5% CO2. After 3 days of treatment, the CellTiter 96® Aqueous One Solution cell proliferation assay (Promega) was performed by adding the MTS solution to each well. The plates were then incubated at 37° C./5% CO2 for 3.5 hours. Plates were then read in a Victor^3V 1420 multilabel counter (Perkin Elmer) and CC50 concentrations were determined using Microsoft Excel and XLfit 4.1 software.

[3] = Stability in human liver microsomes; format: in vitro ADME; conditions: human microsomes 1 mg/mL, 60 min, 50 μM
Experimental: (§2) Disappearance of parent Compound 1 was used to evaluate the in vitro metabolism thereof. Relative levels of unchanged Compound 1 were measured by HPLC-UV method 1. Residual Compound 1 is reported as percent difference from time zero or control. The HPLC-UV system was as follows:
Incubations with liver microsomes or cytosol were conducted in a final volume of 0.1 mL per incubation time point. […] The microsomal reaction was initiated by the addition of NADPH (3 mM final concentration). Incubations with (a) no protein or (b) no NADPH served as controls. Reactions were terminated by the addition of 0.2 mL of stop solution (acetonitrile). The samples were vortex-mixed for 30 sec and then centrifuged at 10,000×g for 10 min. The supernatant was dried using a Labconco CentriVap concentrator and the dry residue reconstituted in water, transferred to an HPLC glass vial and analyzed by HPLC-UV method 1 (described above).
(§3) Metabolic stability of the proposed metabolites was conducted by incubating the chemically synthesized standards Compound 2, Compound 4 and Compound 3 as described above for Compound 1. When possible, formation of Compound 5 was verified by incubating samples with alkaline phosphatase (10 U) for 60 min at 37° C.

[4] = Incubation with monkey liver cytosol; format: in vitro ADME; conditions: monkey cytosol 1 mg/mL, 2 hours, 10 μM
Experimental: (§4) Pooled liver cytosol (1.0 mg protein/mL) suspended in incubation buffer (0.1 M potassium phosphate, pH 7.4) was incubated for 2 hours at 37° C. with 10 μM Compound 1 from a stock solution in DMSO (final DMSO concentration was 0.1%); reaction was initiated with the addition of test article. Incubations with no protein served as control. Reactions were terminated by the addition of 0.1 mL of stop solution (acetonitrile). The samples were vortex-mixed for 30 sec and then centrifuged at 10,000×g for 10 min. The supernatant was dried using a Labconco CentriVap concentrator and the dry residue reconstituted in water, transferred to an HPLC glass vial and analyzed by HPLC-UV method 2 (described above).
as §3

pig liver esterase = assay: Incubation with pig liver esterase; format: in vitro ADME; conditions: Esterase 14 U, 60 min, 10 μM
Experimental: as §4, with “Pig” for “Pooled”, “esterase (14 U)” for “cytosol (1.0 mg protein/mL)”, “60 min” for “2 hours”, “controls.” for “control.”
as §3

[5] = Incubation with rat liver cytosol; format: in vitro ADME; conditions: rat cytosol 1 mg/mL, 2 hours, 10 μM
Experimental: as §4, §3

[6] = Incubation with human liver cytosol; format: in vitro ADME; conditions: human cytosol 1 mg/mL, 2 hours, 10 μM
Experimental: as §4, §3

[7] = Stability in rat liver microsomes; format: in vitro ADME; conditions: rat microsomes 1 mg/mL, 60 min, 50 μM
Experimental: as §2
(§5) Incubations with liver microsomes or cytosol were conducted in a final volume of 0.1 mL per incubation time point. […] DMSO (final DMSO concentration was 0.1%) was incubated at 37° C. from 0-60 min with pooled microsomal protein (1.0 mg/mL), suspended in incubation buffer (0.1 M potassium phosphate, pH 7.4, 5 mM MgCl2, and 0.1 mM EDTA). The microsomal reaction was initiated by the addition of NADPH (3 mM final concentration). Incubations with (a) no protein or (b) no NADPH served as controls. Reactions were terminated by the addition of 0.2 mL of stop solution (acetonitrile). The samples were vortex-mixed for 30 sec and then centrifuged at 10,000×g for 10 min. The supernatant was dried using a Labconco CentriVap concentrator and the dry residue reconstituted in water, transferred to an HPLC glass vial and analyzed by HPLC-UV method 1 (described above).
as §3

[8] = Stability in monkey liver microsomes; format: in vitro ADME; conditions: monkey microsomes 1 mg/mL, 60 min, 50 μM
Experimental: as §2, §5, §3

% Residual compound following incubation with liver microsomes ([3]; NADPH) | % Residual compound following incubation with liver microsomes ([3]; No Cofactor) | Residual compound following incubation with liver cytosol [4] | Residual compound following incubation with pig liver esterase (pig liver esterase) | Residual compound following incubation with liver cytosol [5] | Residual compound following incubation with liver cytosol [6] | % Residual compound following incubation with liver microsomes ([7]; NADPH) | % Residual compound following incubation with liver microsomes ([7]; No Cofactor) | % Residual compound following incubation with liver microsomes ([8]; NADPH) | % Residual compound following incubation with liver microsomes ([8]; No Cofactor) | SMILES | EC50 [1] | EC50 [2] | CC50 (GS4.1 cells)
 |  |  |  |  |  |  |  |  |  | CC(C)(CO)C(=O)SCCOP(=O)(NCc1ccccc1)OC[C@H]1O[C@@H](n2cnc3c(=O)[nH]c(N)nc32)[C@](C)(O)[C@@H]1O (single isomer, unassigned; diastereomer 1) [Diastereomer 1] | 165 ± 23 nM | 704 ± 372 nM | > 100000 nM
93% | 100% | 103% | 100% | 101% | 100% | 89% | 100% | 83% | 100% | C[C@@]1(O)[C@H](O)[C@@H](COP(N)(=O)O)O[C@H]1n1cnc2c(=O)[nH]c(N)nc21 [Compound 4, {9-[(2R)2-C-methyl-β-D-ribo-furanosyl]-guanin}-5′-yl phosphoramidate] |  |  | 
